Experimental data: PubChem BioAssay AID332 (DTP/NCI, 2004)
“And” between values parts separate entries of the source, which are not always exact repeats. Equal values may be shown once. Results filed as inconclusive are left out.

Tested on: mice, ADJ-PC-20 plasma cell tumor sc, T/C %
Assay: NCI In Vivo Anticancer Drug Screen. Data for tumor model ADJ-PC-20 Plasma Cell (subcutaneous) in unknown mice
Settings: endpoint: mean tumor weight, higher = larger tumour
Protocol: The antitumor activity of compounds was measured in mice bearing transplantable tumors. Survival or tumor size were measured and the results are expressed as the measurement made in the treated group (T) divided by the measurement made in the vehicle treated control group (C). The tumor model used in this assay is ADJ-PC-20 Plasma Cell (subcutaneous) in unknown mice

[1] = dose: 12.5 mg/kg/injection, schedule: Q01DX010 (ip), vehicle: carboxymethylcellulose (CMC)
[2] = dose: 25.0 mg/kg/injection, schedule: Q01DX010 (ip), vehicle: carboxymethylcellulose (CMC)
[3] = dose: 125.0 mg/kg/injection, schedule: Q01DX010 (ip), vehicle: carboxymethylcellulose (CMC)
[4] = dose: 250.0 mg/kg/injection, schedule: Q01DX010 (ip), vehicle: carboxymethylcellulose (CMC)
[5] = dose: 6.25 mg/kg/injection, schedule: Q01DX010 (ip), vehicle: carboxymethylcellulose (CMC)

## C[C@]12CC[C@H](OC3OC(CO)C(O)C(O)C3O)C[C@H]1CC[C@@H]1[C@@H]2CC[C@]2(C)[C@@H](C3=CCOC3=O)CC[C@]12O (stereo not given in full)
dose: 63.0 micrograms/kg/injection, schedule: Q01DX010 (ip), vehicle: saline
  T/C: 99 % of control
dose: 125.0 micrograms/kg/injection, schedule: Q01DX010 (ip), vehicle: saline
  T/C: 93 % of control
dose: 250.0 micrograms/kg/injection, schedule: Q01DX010 (ip), vehicle: saline
  T/C: 95 % of control

## Cc1n[nH]c(=O)[nH]c1=O
dose: 100.0 mg/kg/injection, schedule: Q01DX010 (ip), vehicle: other
  T/C: 80 % of control
dose: 200.0 mg/kg/injection, schedule: Q01DX010 (ip), vehicle: other
  T/C: 85 % of control

## COc1ccc(/C=N/NC(N)=S)cc1
dose: 75.0 mg/kg/injection, schedule: Q01DX010 (ip), vehicle: saline
  T/C: 87 % of control
dose: 150.0 mg/kg/injection, schedule: Q01DX010 (ip), vehicle: saline
  T/C: 99 % of control
dose: 300.0 mg/kg/injection, schedule: Q01DX010 (ip), vehicle: saline
  T/C: 82 % of control
dose: 600.0 mg/kg/injection, schedule: Q01DX010 (ip), vehicle: saline
  T/C: 85 % of control

## C=CC(CN1CC1)OC(C)=O (stereo not given)
dose: 3.75 mg/kg/injection, schedule: Q01DX010 (ip), vehicle: carboxymethylcellulose (CMC)
  T/C: 72 % of control
dose: 7.5 mg/kg/injection, schedule: Q01DX010 (ip), vehicle: carboxymethylcellulose (CMC)
  T/C: 40 % of control

## CCCCn1cnc2c(=S)nc[nH]c21
dose: 0.8 mg/kg/injection, schedule: Q01DX010 (ip), vehicle: carboxymethylcellulose (CMC)
  T/C: 74 % of control
dose: 1.6 mg/kg/injection, schedule: Q01DX010 (ip), vehicle: carboxymethylcellulose (CMC)
  T/C: 68 % of control
dose: 3.1 mg/kg/injection, schedule: Q01DX010 (ip), vehicle: carboxymethylcellulose (CMC)
  T/C: 52 % of control
dose: 6.3 mg/kg/injection, schedule: Q01DX010 (ip), vehicle: carboxymethylcellulose (CMC)
  T/C: 41 % of control
[1]
  T/C: 15 % of control
[2]
  T/C: 1 % of control

## C[C@]12CCC(=O)C=C1CC[C@H]1[C@@H]3CC[C@](O)(C(=O)CO)[C@@]3(C)C[C@H](O)[C@@]12F
dose: 2.5 mg/kg/injection, schedule: Q01DX010 (sc), vehicle: steriod suspending solution
  T/C: 62 % of control
dose: 5.0 mg/kg/injection, schedule: Q01DX010 (sc), vehicle: steriod suspending solution
  T/C: 43 % of control
dose: 10.0 mg/kg/injection, schedule: Q01DX010 (sc), vehicle: steriod suspending solution
  T/C: 33 % of control

## O=C(Nc1ccc(NC2=NCCN2)cc1)c1ccc(C(=O)Nc2ccc(NC3=NCCN3)cc2)cc1
dose: 4.0 mg/kg/injection, schedule: Q01DX010 (ip), vehicle: saline
  T/C: 98 % of control
dose: 8.0 mg/kg/injection, schedule: Q01DX010 (ip), vehicle: saline
  T/C: 69 % of control

## O[C@H](CN1CC1)[C@@H](O)CN1CC1
dose: 0.25 mg/kg/injection, schedule: Q01DX010 (ip), vehicle: carboxymethylcellulose (CMC)
  T/C: 25 % of control
dose: 16.0 micrograms/kg/injection, schedule: Q01DX010 (ip), vehicle: carboxymethylcellulose (CMC)
  T/C: 103 % of control
dose: 31.0 micrograms/kg/injection, schedule: Q01DX010 (ip), vehicle: carboxymethylcellulose (CMC)
  T/C: 151 % of control
dose: 63.0 micrograms/kg/injection, schedule: Q01DX010 (ip), vehicle: carboxymethylcellulose (CMC)
  T/C: 55 % of control
dose: 125.0 micrograms/kg/injection, schedule: Q01DX010 (ip), vehicle: carboxymethylcellulose (CMC)
  T/C: 66 % of control

## O=c1cn[nH]c(=O)[nH]1
[3]
  T/C: 75 % of control
[4]
  T/C: 64 % of control
dose: 500.0 mg/kg/injection, schedule: Q01DX010 (ip), vehicle: carboxymethylcellulose (CMC)
  T/C: 66 % of control
dose: 1000.0 mg/kg/injection, schedule: Q01DX010 (ip), vehicle: carboxymethylcellulose (CMC)
  T/C: 38 % of control

## C[n+]1c2ccccc2nc2c(N)cc(N)cc21
[5]
  T/C: 92 % of control
[1]
  T/C: 114 % of control
[2]
  T/C: 99 % of control

## Oc1cc(CN(CCCl)CCCl)c(O)cc1CN(CCCl)CCCl
dose: 0.22 mg/kg/injection, schedule: Q01DX010 (sc), vehicle: steriod suspending solution
  T/C: 62 % of control
dose: 0.45 mg/kg/injection, schedule: Q01DX010 (sc), vehicle: steriod suspending solution
  T/C: 69 % of control
dose: 0.9 mg/kg/injection, schedule: Q01DX010 (sc), vehicle: steriod suspending solution
  T/C: 76 % of control
dose: 1.8 mg/kg/injection, schedule: Q01DX010 (sc), vehicle: steriod suspending solution
  T/C: 28 % of control

## S=c1nc[nH]c2nc[nH]c12
dose: 3.1 mg/kg/injection, schedule: Q01DX010 (ip), vehicle: other
  T/C: 28 % of control
dose: 6.2 mg/kg/injection, schedule: Q01DX010 (ip), vehicle: other
  T/C: 16 % of control
dose: 6.25 mg/kg/injection, schedule: Q01DX010 (ip), vehicle: other
  T/C: 19 % of control
dose: 6.25 mg/kg/injection, schedule: Q01DX011 (ip), vehicle: other
  T/C: 7 % of control
dose: 12.5 mg/kg/injection, schedule: Q01DX010 (ip), vehicle: other
  T/C: 18 % of control
dose: 12.5 mg/kg/injection, schedule: Q01DX011 (ip), vehicle: other
  T/C: 4 % of control
dose: 25.0 mg/kg/injection, schedule: Q01DX010 (ip), vehicle: other
  T/C: 9 % of control and 10 % of control
dose: 25.0 mg/kg/injection, schedule: Q01DX011 (ip), vehicle: other
  T/C: 5 % of control
dose: 50.0 mg/kg/injection, schedule: Q01DX011 (ip), vehicle: other
  T/C: 7 % of control

## Nc1nc(N)c2nc(CNc3ccc(C(=O)NC(CCC(=O)O)C(=O)O)cc3)cnc2n1 (stereo not given)
dose: 63.0 micrograms/kg/injection, schedule: Q01DX010 (ip), vehicle: alkali diluted with saline
  T/C: 86 % of control
dose: 125.0 micrograms/kg/injection, schedule: Q01DX010 (ip), vehicle: alkali diluted with saline
  T/C: 82 % of control

## c1ccc(CNc2ncnc3[nH]ncc23)cc1
dose: 4.0 mg/kg/injection, schedule: Q01DX010 (ip), vehicle: carboxymethylcellulose (CMC)
  T/C: 110 % of control
dose: 8.0 mg/kg/injection, schedule: Q01DX010 (ip), vehicle: carboxymethylcellulose (CMC)
  T/C: 108 % of control
dose: 16.0 mg/kg/injection, schedule: Q01DX010 (ip), vehicle: carboxymethylcellulose (CMC)
  T/C: 82 % of control
dose: 32.0 mg/kg/injection, schedule: Q01DX010 (ip), vehicle: carboxymethylcellulose (CMC)
  T/C: 65 % of control

## CN(C)CC(=O)c1ccc(O)c(O)c1
dose: 62.5 mg/kg/injection, schedule: Q01DX010 (ip), vehicle: saline
  T/C: 99 % of control
dose: 250.0 mg/kg/injection, schedule: Q01DX010 (ip), vehicle: saline
  T/C: 77 % of control
dose: 500.0 mg/kg/injection, schedule: Q01DX010 (ip), vehicle: saline
  T/C: 72 % of control and 86 % of control

## O=c1[nH]c(=O)n(C2CC(O)C(CO)O2)cc1I (stereo not given)
dose: 31.25 mg/kg/injection, schedule: Q01DX010 (ip), vehicle: carboxymethylcellulose (CMC)
  T/C: 49 % of control
dose: 62.5 mg/kg/injection, schedule: Q01DX010 (ip), vehicle: carboxymethylcellulose (CMC)
  T/C: 77 % of control
[3]
  T/C: 32 % of control
[4]
  T/C: 11 % of control

## CS(=O)(=O)OCCCCOS(C)(=O)=O
dose: 6.25 mg/kg/injection, schedule: Q01DX010 (ip), vehicle: methylcellulose (MC)
  T/C: 93 % of control
dose: 12.5 mg/kg/injection, schedule: Q01DX010 (ip), vehicle: methylcellulose (MC)
  T/C: 66 % of control
dose: 25.0 mg/kg/injection, schedule: Q01DX010 (ip), vehicle: methylcellulose (MC)
  T/C: 71 % of control and 72 % of control
dose: 50.0 mg/kg/injection, schedule: Q01DX010 (ip), vehicle: methylcellulose (MC)
  T/C: 42 % of control

## CCC(=O)O[C@H]1CC[C@H]2[C@@H]3CCC4=CC(=O)CC[C@]4(C)[C@H]3CC[C@]12C
dose: 125.0 mg/kg/injection, schedule: Q01DX010 (sc), vehicle: steriod suspending solution
  T/C: 79 % of control
dose: 250.0 mg/kg/injection, schedule: Q01DX010 (sc), vehicle: steriod suspending solution
  T/C: 154 % of control
dose: 500.0 mg/kg/injection, schedule: Q01DX010 (sc), vehicle: steriod suspending solution
  T/C: 76 % of control
dose: 1000.0 mg/kg/injection, schedule: Q01DX010 (sc), vehicle: steriod suspending solution
  T/C: 108 % of control
dose: 2000.0 mg/kg/injection, schedule: Q01DX010 (sc), vehicle: steriod suspending solution
  T/C: 80 % of control

## O=C(O)CCCc1ccc(N(CCCl)CCCl)cc1
[5]
  T/C: 120 % of control
[1]
  T/C: 58 % of control

## Nc1ncnc2c1ccn2C1OC(CO)C(O)C1O (stereo not given)
dose: 0.63 mg/kg/injection, schedule: Q01DX010 (ip), vehicle: carboxymethylcellulose (CMC)
  T/C: 94 % of control

## COS(C)(=O)=O
dose: 25.0 mg/kg/injection, schedule: Q01DX010 (ip), vehicle: water
  T/C: 110 % of control
dose: 50.0 mg/kg/injection, schedule: Q01DX010 (ip), vehicle: water
  T/C: 82 % of control
dose: 100.0 mg/kg/injection, schedule: Q01DX010 (ip), vehicle: water
  T/C: 42 % of control
